For the test, the target named is T1, Tyrosine-protein phosphatase non-receptor type 1 (Homo sapiens) (UniProt P18031).
T1 sequence (whole entry): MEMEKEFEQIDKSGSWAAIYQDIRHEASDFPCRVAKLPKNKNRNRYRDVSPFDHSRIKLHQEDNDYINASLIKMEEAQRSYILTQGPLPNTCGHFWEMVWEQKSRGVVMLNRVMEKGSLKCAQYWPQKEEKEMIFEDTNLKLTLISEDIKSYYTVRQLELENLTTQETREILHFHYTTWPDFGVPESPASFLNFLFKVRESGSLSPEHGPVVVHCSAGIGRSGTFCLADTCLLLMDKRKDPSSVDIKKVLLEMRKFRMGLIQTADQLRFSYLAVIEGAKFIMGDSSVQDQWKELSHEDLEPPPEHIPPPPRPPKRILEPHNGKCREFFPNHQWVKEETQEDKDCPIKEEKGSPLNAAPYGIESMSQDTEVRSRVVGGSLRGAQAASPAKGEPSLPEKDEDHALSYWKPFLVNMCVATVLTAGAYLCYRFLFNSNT
The test can be described thus: Catalytic turnover rate was determined.

Numbered stars: 1 amine (or outer) side, 2 acyl side, 3 side chain; on linkers, the order of the positions; unused ones are H or OH. Square brackets hold non-standard residues; d marks the D form. Peptide text beside a SMILES is read from it. X1 = O=C([C@H](Cc1ccc(OP(=O)(O)O)cn1)N[*:1])[*:2]; pY = N[C@@H](Cc1ccc(OP(=O)(O)O)cc1)C(=O)O

For the compound `CC(=O)N[C@@H](CC(=O)O)C(=O)N[C@@H](C)C(=O)N[C@@H](CC(=O)O)C(=O)N[C@@H](CCC(=O)O)C(=O)N[C@@H](Cc1ccc(OP(=O)(O)O)cn1)C(=O)N[C@@H](CC(C)C)C(N)=O` (Ac-DADE[X1]L-NH2), the k cat stood at 52 s⁻¹.
`CC(=O)N[C@@H](CC(=O)O)C(=O)N[C@@H](C)C(=O)N[C@@H](CC(=O)O)C(=O)N[C@@H](CCC(=O)O)C(=O)N[C@@H](Cc1ccc(OP(=O)(O)O)cc1)C(=O)N[C@@H](CC(C)C)C(N)=O` (Ac-DADE[pY]L-NH2) showed a k cat of 68 s⁻¹.

These data come from ChEMBL document CHEMBL1134058, “Phospho-Azatyrosine, a less effective protein-tyrosine phosphatase substrate than phosphotyrosine” (Bioorg Med Chem Lett, 2001).
